Measurements published in ChEMBL document CHEMBL5131541, “Structural Feature Analyzation Strategies toward Discovery of Orally Bioavailable PROTACs of Bruton's Tyrosine Kinase for the Treatment of Lymphoma” (J Med Chem, 2022).
Calls of active or inactive are those of the source. The rule behind the calls is not given here.

Key:
[1] = cells; conditions: Homo sapiens, MINO
[2] = AUC (0 to t) in Sprague-Dawley rat at 10 mg/kg, po administered as cassette dose measured upto 24 hrs by LC-MS analysis; format: ADME, organism-based; design: dose 10 mg/kg, time < 24 hrs, route po; conditions: in vivo
[3] = Cmax in Sprague-Dawley rat at 10 mg/kg, po administered as cassette dose measured upto 24 hrs by LC-MS analysis; format: ADME, organism-based; design: time < 24 hrs, dose 10 mg/kg, route po; conditions: in vivo
[4] = Tmax in Sprague-Dawley rat at 10 mg/kg, po administered as cassette dose measured upto 24 hrs by LC-MS analysis; format: ADME, organism-based; conditions: in vivo
[5] = target: T1, Tyrosine-protein kinase BTK (Homo sapiens, UniProt Q06187); test: Inhibition of BTK (unknown origin)
T1 sequence (Q06187 whole entry): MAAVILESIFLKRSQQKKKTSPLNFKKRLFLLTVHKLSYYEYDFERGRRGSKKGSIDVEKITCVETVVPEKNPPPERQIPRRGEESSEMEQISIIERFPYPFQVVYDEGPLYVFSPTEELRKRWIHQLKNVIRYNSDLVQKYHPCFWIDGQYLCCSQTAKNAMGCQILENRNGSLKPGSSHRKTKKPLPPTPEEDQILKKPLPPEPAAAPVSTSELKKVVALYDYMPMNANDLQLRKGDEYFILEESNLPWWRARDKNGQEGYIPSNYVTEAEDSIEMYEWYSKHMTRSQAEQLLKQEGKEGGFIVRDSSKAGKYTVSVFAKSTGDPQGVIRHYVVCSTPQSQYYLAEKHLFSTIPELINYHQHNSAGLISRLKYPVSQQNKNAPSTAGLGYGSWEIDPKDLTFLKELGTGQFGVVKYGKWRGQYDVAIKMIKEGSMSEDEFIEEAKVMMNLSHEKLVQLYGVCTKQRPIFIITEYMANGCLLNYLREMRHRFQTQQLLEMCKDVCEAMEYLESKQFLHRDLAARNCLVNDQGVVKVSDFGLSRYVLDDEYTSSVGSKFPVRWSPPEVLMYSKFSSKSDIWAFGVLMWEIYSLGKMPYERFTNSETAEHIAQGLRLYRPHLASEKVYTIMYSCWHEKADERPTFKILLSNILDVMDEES

[6] = system: OCI-Ly10; test: cells; conditions: Homo sapiens
[7] = target: Tyrosine-protein kinase BTK (Mus musculus) (UniProt P35991); test: In vivo induction of BTK degradation in ICR mouse monocytes at 20 mg/kg, po after 8 hrs by Western blot analysis relative to control; format: functional, organism-based; conditions: Monocyte
Sequence of Tyrosine-protein kinase BTK (Mus musculus) (P35991 whole entry): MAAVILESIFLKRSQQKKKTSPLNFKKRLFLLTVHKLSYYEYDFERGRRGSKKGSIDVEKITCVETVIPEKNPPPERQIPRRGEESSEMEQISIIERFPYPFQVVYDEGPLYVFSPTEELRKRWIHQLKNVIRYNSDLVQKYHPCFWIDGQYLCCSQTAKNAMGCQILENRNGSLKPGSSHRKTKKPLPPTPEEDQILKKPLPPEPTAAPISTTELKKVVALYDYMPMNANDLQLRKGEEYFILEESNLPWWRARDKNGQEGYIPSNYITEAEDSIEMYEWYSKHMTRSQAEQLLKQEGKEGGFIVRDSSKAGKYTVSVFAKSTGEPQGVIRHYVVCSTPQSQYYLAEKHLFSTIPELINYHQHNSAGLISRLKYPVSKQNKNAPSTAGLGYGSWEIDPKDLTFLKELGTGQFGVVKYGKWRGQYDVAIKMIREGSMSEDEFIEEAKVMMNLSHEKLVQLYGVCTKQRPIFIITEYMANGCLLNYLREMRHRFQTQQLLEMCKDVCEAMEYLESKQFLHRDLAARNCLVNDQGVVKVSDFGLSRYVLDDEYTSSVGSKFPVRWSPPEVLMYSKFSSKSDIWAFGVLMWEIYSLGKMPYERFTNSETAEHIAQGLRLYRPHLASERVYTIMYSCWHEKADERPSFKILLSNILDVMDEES

[8] = system: JeKo-1; test: cells; conditions: Homo sapiens
[9] = Cmax in ICR mouse at 20 mg/kg, po administered as single dose measured upto 48 hrs by LC-MS analysis; format: ADME, organism-based; design: dose 20 mg/kg, time < 48 hrs, route po; conditions: in vivo
[10] = Half life in ICR mouse at 20 mg/kg, po administered as single dose measured upto 48 hrs by LC-MS analysis; format: ADME, organism-based; conditions: in vivo
[11] = Tmax in ICR mouse at 20 mg/kg, po administered as single dose measured upto 48 hrs by LC-MS analysis; format: ADME, organism-based; conditions: in vivo
[12] = system: TMD8; test: cells; conditions: Homo sapiens
[13] = Half life in Sprague-Dawley rat at 10 mg/kg, po administered as cassette dose measured upto 24 hrs by LC-MS analysis; format: ADME, organism-based; conditions: in vivo
[14] = Dose normalized AUC (0 to t) in Sprague-Dawley rat at 10 mg/kg, po administered as cassette dose measured upto 24 hrs by LC-MS analysis; format: ADME, organism-based; conditions: in vivo
[15] = AUC (0 to infinity) in ICR mouse at 20 mg/kg, po administered as single dose measured upto 48 hrs by LC-MS analysis; format: ADME, organism-based; design: dose 20 mg/kg, time < 48 hrs, route po; conditions: in vivo
[16] = system: JeKo-1; test: cells; conditions: Homo sapiens; remark: listed apart in the source
[17] = target: T1, Tyrosine-protein kinase BTK; test: Induction of BTK degradation in human MINO cells incubated for 24 hrs by Western blot analysis; format: cell-based; conditions: dose 1-1000 nM, DDE = dose-dependent effect
[18] = AUC (0 to t) in ICR mouse at 20 mg/kg, po administered as single dose measured upto 48 hrs by LC-MS analysis; format: ADME, organism-based; design: dose 20 mg/kg, time < 48 hrs, route po; conditions: in vivo
[19] = system: MM1.S; test: cells; conditions: Homo sapiens
[20] = system: OCI-Ly10; test: Antitumor activity against human OCILY10 cells xenografted in SCID mouse assessed as tumor growth inhibition at 10 mg/kg, po qd measured after 17 days relative to control; format: functional; design: scale not given: the % may be the effect or the level left; conditions: time 17 day
[21] = system: HEK293; test: Induction of BTK C481 mutant degradation in human HEK293 cells incubated for 24 hrs by Western blot analysis; format: cell-based; conditions: dose 1-1000 nM, DDE = dose-dependent effect
[22] = target: T1, Tyrosine-protein kinase BTK; test: Induction of BTK degradation in human MINO cells at 100 nM measured after 8 hrs by proteomic analysis; format: cell-based
[23] = Tmax in Sprague-Dawley rat at 5 to 10 mg/kg, po administered as cassette dose measured upto 24 hrs by LC-MS analysis; format: ADME, organism-based; conditions: in vivo, dose 5-10 mg/kg
[24] = Cmax in ICR mouse at 100 mg/kg, po measured upto 48 hrs by LC/MS analysis; format: ADME, organism-based; design: dose 100 mg/kg, time < 48 hrs, route po; conditions: in vivo
[25] = Tmax in ICR mouse at 100 mg/kg, po measured upto 48 hrs by LC/MS analysis; format: ADME, organism-based; conditions: in vivo
[26] = Induction of leukocyte c-SRC kinase degradation in human MINO cells at 100 nM measured after 8 hrs by proteomic analysis
[27] = AUC (0 to t) in Sprague-Dawley rat at 5 to 10 mg/kg, po administered as cassette dose measured upto 24 hrs by LC-MS analysis; format: ADME, organism-based; design: time < 24 hrs, route po; conditions: in vivo, dose 5-10 mg/kg
[28] = target: T1, Tyrosine-protein kinase BTK; test: Induction of BTK degradation in human MINO cells assessed as maximum degradation incubated for 24 hrs by Western blot based densitometry analysis relative to control; format: cell-based
[29] = Clearance in ICR mouse at 2 mg/kg, iv measured upto 48 hrs by LC/MS analysis; format: ADME, organism-based; conditions: in vivo
[30] = Half life in ICR mouse at 100 mg/kg, po measured upto 48 hrs by LC/MS analysis; format: ADME, organism-based; conditions: in vivo
[31] = system: OCI-Ly10; test: Antitumor activity against human OCILY10 cells xenografted in SCID mouse assessed as tumor growth inhibition at 30 mg/kg, po bid measured after 17 days relative to control; format: functional; design: scale not given: the % may be the effect or the level left; conditions: time 17 day
[32] = target: T1, Tyrosine-protein kinase BTK; test: Induction of BTK degradation in human MINO cells incubated for 24 hrs by Western blot based densitometry analysis; format: cell-based
[33] = target: T1, Tyrosine-protein kinase BTK; test: Induction of BTK degradation in human MINO cells at 0.1 to 1000 nM incubated for 2 hrs by Western blot analysis; format: cell-based; conditions: dose 0.1-1000 nM
[34] = system: OCI-Ly10; test: Antitumor activity against human OCILY10 cells xenografted in SCID mouse assessed as tumor growth inhibition at 10 mg/kg, po bid measured after 17 days relative to control; format: functional; design: scale not given: the % may be the effect or the level left; conditions: time 17 day
[35] = AUC (0 to t) in ICR mouse at 100 mg/kg, po measured upto 48 hrs by LC/MS analysis; format: ADME, organism-based; design: time < 48 hrs, dose 100 mg/kg, route po; conditions: in vivo
[36] = target: T1, Tyrosine-protein kinase BTK; test: Induction of BTK degradation in human MINO cells incubated for 24 hrs by Western blot; format: cell-based; conditions: dose 1-1000 nM, DDE = dose-dependent effect
[37] = target: T1, Tyrosine-protein kinase BTK; test: Induction of BTK degradation in human MINO cells assessed as reduction in PLCgamma-2 phosphorylation incubated for 24 hrs by Western blot analysis; format: cell-based; conditions: dose 1-200 nM, DDE = dose-dependent effect
[38] = MRT in ICR mouse at 2 mg/kg, iv measured upto 48 hrs by LC/MS analysis; format: ADME, organism-based; conditions: in vivo
[39] = system: Tyrosine-protein kinase BTK (Homo sapiens), Q06187 [C481S]; test: Inhibition of BTK C481S mutant (unknown origin)
Sequence of Tyrosine-protein kinase BTK (Homo sapiens), Q06187 [C481S] (Q06187 whole entry C481S): as the sequence (Q06187 whole entry) above, with C481S counted along it

[40] = Oral bioavailability in ICR mouse at 100 mg/kg measured upto 48 hrs by LC/MS analysis; format: ADME, organism-based; conditions: in vivo
[41] = Half life in Sprague-Dawley rat at 5 to 10 mg/kg, po administered as cassette dose measured upto 24 hrs by LC-MS analysis; format: ADME, organism-based; conditions: in vivo, dose 5-10 mg/kg
[42] = target: Proto-oncogene tyrosine-protein kinase Src (Homo sapiens) (UniProt P12931); test: Induction of c-SRC tyrosine kinase degradation in human MINO cells at 100 nM measured after 8 hrs by proteomic analysis; format: cell-based
Sequence of Proto-oncogene tyrosine-protein kinase Src (Homo sapiens) (P12931 2-536 limits assumed): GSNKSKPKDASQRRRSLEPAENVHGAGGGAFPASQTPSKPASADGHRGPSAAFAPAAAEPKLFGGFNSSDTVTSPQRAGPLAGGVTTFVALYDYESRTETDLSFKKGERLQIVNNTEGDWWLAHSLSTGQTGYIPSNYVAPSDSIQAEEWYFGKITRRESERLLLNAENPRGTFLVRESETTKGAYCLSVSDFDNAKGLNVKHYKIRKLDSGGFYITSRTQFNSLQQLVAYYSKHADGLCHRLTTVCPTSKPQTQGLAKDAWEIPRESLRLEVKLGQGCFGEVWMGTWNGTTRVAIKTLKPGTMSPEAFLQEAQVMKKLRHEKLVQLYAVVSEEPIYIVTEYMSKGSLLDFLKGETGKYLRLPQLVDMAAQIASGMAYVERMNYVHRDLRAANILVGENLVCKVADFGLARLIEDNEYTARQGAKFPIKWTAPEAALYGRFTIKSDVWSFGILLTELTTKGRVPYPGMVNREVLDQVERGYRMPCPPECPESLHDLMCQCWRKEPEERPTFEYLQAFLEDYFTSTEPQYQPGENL

[43] = AUC (0 to infinity) in ICR mouse at 100 mg/kg, po measured upto 48 hrs by LC/MS analysis; format: ADME, organism-based; design: time < 48 hrs, dose 100 mg/kg, route po; conditions: in vivo
[44] = target: T1, Tyrosine-protein kinase BTK; test: Induction of BTK degradation in human MINO cells at 0.1 to 1000 nM incubated for 8 hrs by Western blot analysis relative to control; format: cell-based; conditions: dose 0.1-1000 nM
[45] = Toxicity in SCID mouse xenografted with OCILY10 cells assessed as effect on body weight at 10 to 30 mg/kg, po bid measured after 17 days; format: organism-based; conditions: in vivo, 408 h, dose 10-30 mg/kg, time 17 day
[46] = target: T1, Tyrosine-protein kinase BTK; test: Induction of BTK degradation in human MINO cells assessed as reduction in NFkappaB phosphorylation incubated for 24 hrs by Western blot analysis; format: cell-based; conditions: dose 1-200 nM, DDE = dose-dependent effect
[47] = target: Tyrosine-protein kinase BTK (Mus musculus) (UniProt P35991); test: In vivo induction of BTK degradation in ICR mouse monocytes assessed as protein remaining at 100 mg/kg, po after 6 hrs by Western blot analysis relative to control; format: functional, organism-based
[48] = Cmax in Sprague-Dawley rat at 5 to 10 mg/kg, po administered as cassette dose measured upto 24 hrs by LC-MS analysis; format: ADME, organism-based; design: time < 24 hrs, route po; conditions: in vivo, dose 5-10 mg/kg
[49] = system: HEK293; test: Induction of BTK T316 mutant degradation in human HEK293 cells incubated for 24 hrs by Western blot analysis; format: cell-based; conditions: dose 1-1000 nM, DDE = dose-dependent effect
[50] = Dose normalized AUC (0 to t) in Sprague-Dawley rat at 5 to 10 mg/kg, po administered as cassette dose measured upto 24 hrs by LC-MS analysis; format: ADME, organism-based; conditions: in vivo, dose 5-10 mg/kg
[51] = target: Tyrosine-protein kinase BTK (Mus musculus) (UniProt P35991); test: In vivo induction of BTK degradation in ICR mouse monocytes assessed as protein remaining at 100 mg/kg, po after 24 hrs by Western blot analysis relative to control; format: functional, organism-based; conditions: Monocyte
[52] = Volume of distribution at steady state in ICR mouse at 2 mg/kg, iv measured upto 48 hrs by LC/MS analysis; format: ADME, organism-based; conditions: in vivo, read-out: Vdss

SMILES: Nc1ncnc2c1c(-c1ccc(Oc3ccccc3)cc1)nn2[C@@H]1CCCN(C(=O)CC(=O)NCC#CCN2CCN(CC#Cc3ccc4c(c3)CN(C3CCC(=O)NC3=O)C4=O)CC2)C1 (some centres not stated)
- IC50 [1]: 800 nM
- AUC(0-t) at 24 h [2]: 21.5 ng·h/mL
- Cmax [3]: 461 ng/mL
- Tmax [4]: 0.7 h
- IC50 [5]: 24.4 nM
- IC50 [6]: 40.2 nM
- Activity [7]: 16.5%
- IC50 [8]: 20000 nM
- Cmax [9]: 20 ng/mL
- half-life [10]: 5.3 h
- Tmax [11]: 0.3 h
- IC50 [12]: 106 nM
- half-life [13]: 7.9 h
- AUCt/dose [14]: 215 ng·h/mL/mg
- AUC(0-inf) [15]: 55 ng·h/mL
- IC50 [16]: 6570 nM
- Activity [17]: Dde
- AUC(0-t) at 48 h [18]: 39 ng·h/mL
- IC50 [19]: > 20000 nM

SMILES: C=CC(=O)N1CCC[C@@H](n2nc(-c3ccc(Oc4ccccc4)cc3)c3c(N)ncnc32)C1 [IBRUTINIB]
- Activity [20]: 50.7%

SMILES: Nc1ncnc2c1c(-c1ccc(Oc3ccccc3)cc1)nn2C1CCN(C2CCN(CC#Cc3ccc4c(c3)CN(C3CCC(=O)NC3=O)C4=O)CC2)CC1 (configuration not stated)
- Activity [21]: Dde
- Activity [22]: Active
- IC50 [5]: 9 nM
- IC50 [6]: 5.9 nM
- Tmax [23]: 0.7 h
- Cmax [24]: 3090 ng/mL
- Tmax [25]: 8.3 h
- Activity [26]: Active
- IC50 [8]: 708 nM
- AUC(0-t) at 24 h [27]: 83 ng·h/mL
- Emax [28]: 96%
- clearance [29]: 11.8 mL/min/kg
- half-life [30]: 1 h
- Activity [31]: 96.9%
- DC50 [32]: 5.8 nM
- Activity [33]: Active
- Activity [34]: 50.9%
- AUC(0-t) at 48 h [35]: 16900 ng·h/mL
- IC50 [12]: 4.7 nM
- Activity [36]: Dde
- Activity [37]: Dde
- MRT [38]: 4.5 h
- inhibition [39]: Active
- bioavailability [40]: 12%
- half-life [41]: 12.7 h
- IC50 [16]: 105 nM
- Activity [42]: Active
- AUC(0-inf) [43]: 17100 ng·h/mL
- Activity [44]: 91%
- Activity [45]: Non-Toxic
- Activity [46]: Dde
- Activity [47]: Active
- Cmax [48]: 16 ng/mL
- Activity [49]: Dde
- AUCt/dose [50]: 8 ng·h/mL/mg
- Activity [51]: 24%
- Vd [52]: 3.1 L/kg
